Data as given in patent US20260008862A1, “Bispecific Anti-BCMA x Anti-CD3 Antibodies and Uses Thereof” (Regeneron Pharmaceuticals, Inc., priority 2018, published 2026).
Where two headings read alike, the source gives them in different places.

Assays:
[1] = system: primary multiple myeloma blast cells; test: FACS cytotoxicity assay, autologous T cell-mediated killing of primary multiple myeloma blast cells; type: cell-based, human; settings: for EC50: read-out: MM Lysis EC50
Method: In order to monitor the specific killing of multiple myeloma cells by flow cytometry, bone marrow mononuclear cells (BMMC) from multiple myeloma patients were plated on human stromal cells (HS5) and rested overnight at 37 C. Separately, matching patient peripheral blood mononuclear cells (PBMC) were thawed and cultured in supplemented RPMI media at 1×10^6 cells/mL overnight at 37° C. in order to enrich for lymphocytes by depleting adherent cells. The next day, BMMC were co-incubated with adherent cell-depleted naïve PBMC on stromal cells (HS5) and a serial […] dilution of BCMA×CD3 bispecific or 1-arm CD3 isotype control (starting concentration 66.7 nM) at 37° C. Cells were removed from cell culture plates at day 3, 4 or 7 and analyzed by FACS. For the assessment of specificity of killing, multiple myeloma cells were gated as single, live, CD90 negative (to exclude stromal cells), CD2 negative, CD56 positive. CD45 was low on multiple myeloma cells in most samples except MM455. Percent of live target cells was reported for the calculation of adjusted survival as follows: Adjusted survival=(R1/R2)*100, where R1=% live target cells in the presence of antibody, and R2=% live target cells in the absence of test antibody.
T cells were gated as CD2 positive, CD56 negative and either CD4 or CD8 positive. T cell activation was reported as the percent of CD25+CD4 or CD8 T cells out of total CD4 or CD8 T cells.

[2] = system: BCMA-expressing NCI-H929 tumors; test: NCI-H929 + PBMC xenogenic tumor model, immediate treatment, dose response (Example 11); type: in vivo, mouse
Method: To determine the in vivo efficacy of anti-BCMA×anti-CD3 bispecific antibodies (Abs), a xenogenic tumor study was performed. Immunodeficient NOD.Cg-Prkdc^scidIl2rg^tm1Wji/SzJ (NSG) mice were subcutaneously implanted with a mixture of 10×10^6 BCMA-expressing NCI-H929 human multiple myeloma tumor cells and 0.5×10^6 human peripheral blood mononuclear cells (PBMC) isolated from a normal, healthy donor. […] The mice were administered these Abs twice per week for a total of seven doses, and tumor growth was assessed over 60 days. While BCMA^+ NCI-H929 tumors grew similarly in the vehicle- and CD3-binding control-treated mice, both anti-BCMA×anti-CD3 Abs that were tested prevented the growth of tumors in a dose-dependent manner in vivo.
Implantation and measurement of xenogenic tumors: NSG mice were subcutaneously implanted with a mixture of 10×10^6 BCMA-expressing NCI-H929 multiple myeloma cells and 0.5×10^6 PBMC derived from a normal, healthy donor. […] The mice were administered Abs twice per week for a total of seven doses. Tumor growth was measured with calipers twice per week for the duration of the experiment.
Calculation of xenogenic tumor growth and inhibition: In order to determine tumor volume by external caliper, the greatest longitudinal diameter (length in mm) and the greatest transverse diameter (width in mm) were determined. Tumor volumes based on caliper measurements were calculated by the formula: Volume (mm^3)=(length×width^2)/2.

[3] = system: BCMA+ OPM-2-luciferase tumors; test: OPM-2-luciferase intravenous xenogenic tumor model, BLI (Example 15); type: in vivo, mouse; settings: 0.4 mg/kg on days 21, 25 and 28
Method: (§1) To determine the in vivo efficacy of anti-BCMA×anti-CD3 bispecific antibodies (Abs), a xenogenic tumor study was performed. On day 0, immunodeficient NOD.Cg-Prkdc^scidIl2rg^tm1Wji/SzJ (NSG) mice were intravenously administered 2×10^6 BCMA^+ OPM-2 human multiple myeloma tumor cells that were engineered to also express firefly luciferase (OPM-2-luciferase cells). On day 10, the mice were intraperitoneally injected with 4×10^6 human peripheral blood mononuclear cells (PBMC) from a normal, healthy donor. […] The mice were administered these Abs twice more on days 25 and 28, for a total of three doses. Tumor growth was assessed through day 61 by measuring tumor bioluminescence (BLI) in anesthetized animals. As a positive control, a group of mice (n=5) was given only OPM-2-luciferase cells, but not PBMC or antibody.
as §1, with “Implantation and measurement” for “To determine the in vivo efficacy”, “of” for “of anti-BCMA×anti-CD3 bispecific antibodies (Abs), a”, “tumors:” for “tumor study was performed.”
Measurement of xenogenic tumor growth: BLI imaging was used to measure tumor burden. Mice were injected IP with 150 mg/kg of the luciferase substrate D-luciferin suspended in PBS. Five minutes after this injection, BLI imaging of the mice was performed under isoflurane anesthesia using the Xenogen IVIS system. Image acquisition was carried out with the field of view at D, subject height of 1.5 cm, and medium binning level with automatic exposure time determined by the Living Image Software. BLI signals were extracted using Living Image software: regions of interest were drawn around each tumor mass and photon intensities were recorded as p/s/cm2/sr.

Question: For “REGN5458: anti-BCMA×anti-CD3 bispecific antibody: BCMA HCVR of mAb21581 (SEQ 66), CD3 HCVR of mAb7221G (SEQ 90), common LCVR SEQ 82”, which EC50 ([1]; sample MM2, E:T 1.4, 7 days) is on record?
Answer: 747 pM

Question: What about the “% MM lysis at 66 nM” value ([1]; sample MM2, newly diagnosed, E:T 1.4, 7 days) of the same substance?
Answer: 88%

Question: What about the “% MM lysis at 66 nM” value ([1]; sample MM369, newly diagnosed, E:T 0.3, 3 days) of the same substance?
Answer: 96%

Question: What about the EC50 ([1]; sample MM453, E:T 2.4, 3 days) of the same substance?
Answer: 98.9 pM

Question: And the “% MM lysis at 66 nM” value ([1]; sample MM453, newly diagnosed, E:T 2.4, 3 days)?
Answer: 82%

Question: And the EC50 ([1]; sample MM455, E:T 0.4, 3 days)?
Answer: 3670 pM

Question: And the “% MM lysis at 66 nM” value ([1]; sample MM455, progression, treated, E:T 0.4, 3 days)?
Answer: 63%

Question: What about the “Average Tumor Size (mm3) ± SEM on Day 7” value ([2]; 0.04 mg/kg) of the same substance?
Answer: 30.8 ± 5.5 mm3

Question: What about the “Average Tumor Size (mm3) ± SEM on Day 12” value ([2]; 0.04 mg/kg) of the same substance?
Answer: 71.5 ± 22.4 mm3

Question: And the “Average Tumor Size (mm3) ± SEM on Day 15” value ([2]; 0.04 mg/kg)?
Answer: 133.4 ± 50.9 mm3

Question: What about the “Average Tumor Size (mm3) ± SEM on Day 19” value ([2]; 0.04 mg/kg) of the same substance?
Answer: 413.7 ± 162.7 mm3

Question: And the “Average Tumor Size (mm3) ± SEM on Day 22” value ([2]; 0.04 mg/kg)?
Answer: 669.4 ± 248.5 mm3

Question: What about the “Average Tumor Size (mm3) ± SEM on Day 26” value ([2]; 0.04 mg/kg) of the same substance?
Answer: 1167.0 ± 431.7 mm3

Question: What about the “Average Tumor Size (mm3) ± SEM on Day 29” value ([2]; 0.04 mg/kg) of the same substance?
Answer: 1781.8 ± 620.7 mm3

Question: What about the “Average Tumor Size (mm3) ± SEM on Day 4” value ([2]; 0.4 mg/kg) of the same substance?
Answer: 31.9 ± 2.0 mm3

Question: What about the “Average Tumor Size (mm3) ± SEM on Day 7” value ([2]; 0.4 mg/kg) of the same substance?
Answer: 11.3 ± 3.0 mm3

Question: What about the “Average Tumor Size (mm3) ± SEM on Day 15” value ([2]; 0.4 mg/kg) of the same substance?
Answer: 0 ± 0 mm3

Question: And the “Average Tumor Size (mm3) ± SEM on Day 19” value ([2]; 0.4 mg/kg)?
Answer: 0 ± 0 mm3

Question: And the “Average Tumor Size (mm3) ± SEM on Day 22” value ([2]; 0.4 mg/kg)?
Answer: 0 ± 0 mm3

Question: What about the “Average Tumor Size (mm3) ± SEM on Day 26” value ([2]; 0.4 mg/kg) of the same substance?
Answer: 0 ± 0 mm3

Question: What about the “Average Tumor Size (mm3) ± SEM on Day 29” value ([2]; 0.4 mg/kg) of the same substance?
Answer: 0 ± 0 mm3

Question: And the “Average Tumor Size (mm3) ± SEM on Day 34” value ([2]; 0.4 mg/kg)?
Answer: 0 ± 0 mm3

Question: And the “Average Tumor Size (mm3) ± SEM on Day 39” value ([2]; 0.4 mg/kg)?
Answer: 0 ± 0 mm3

Question: And the “Average Tumor Size (mm3) ± SEM on Day 42” value ([2]; 0.4 mg/kg)?
Answer: 0 ± 0 mm3

Question: And the “Average Tumor Size (mm3) ± SEM on Day 46” value ([2]; 0.4 mg/kg)?
Answer: 0 ± 0 mm3

Question: What about the “Average Tumor Size (mm3) ± SEM on Day 55” value ([2]; 0.4 mg/kg) of the same substance?
Answer: 0 ± 0 mm3

Question: And the “Average Tumor Size (mm3) ± SEM on Day 60” value ([2]; 0.4 mg/kg)?
Answer: 0 ± 0 mm3

Question: What about the “Average Tumor Size (mm3) ± SEM on Day 4” value ([2]; 4 mg/kg) of the same substance?
Answer: 18.0 ± 1.2 mm3

Question: And the “Average Tumor Size (mm3) ± SEM on Day 12” value ([2]; 4 mg/kg)?
Answer: 0 ± 0 mm3

Question: And the “Average Tumor Size (mm3) ± SEM on Day 15” value ([2]; 4 mg/kg)?
Answer: 0 ± 0 mm3

Question: And the “Average Tumor Size (mm3) ± SEM on Day 19” value ([2]; 4 mg/kg)?
Answer: 0 ± 0 mm3

Question: What about the “Average Tumor Size (mm3) ± SEM on Day 22” value ([2]; 4 mg/kg) of the same substance?
Answer: 0 ± 0 mm3

Question: What about the “Average Tumor Size (mm3) ± SEM on Day 26” value ([2]; 4 mg/kg) of the same substance?
Answer: 0 ± 0 mm3

Question: And the “Average Tumor Size (mm3) ± SEM on Day 29” value ([2]; 4 mg/kg)?
Answer: 0 ± 0 mm3

Question: And the “Average Tumor Size (mm3) ± SEM on Day 34” value ([2]; 4 mg/kg)?
Answer: 0 ± 0 mm3

Question: What about the “Average Tumor Size (mm3) ± SEM on Day 39” value ([2]; 4 mg/kg) of the same substance?
Answer: 0 ± 0 mm3

Question: And the “Average Tumor Size (mm3) ± SEM on Day 42” value ([2]; 4 mg/kg)?
Answer: 0 ± 0 mm3

Question: And the “Average Tumor Size (mm3) ± SEM on Day 46” value ([2]; 4 mg/kg)?
Answer: 0 ± 0 mm3

Question: What about the “Average Tumor Size (mm3) ± SEM on Day 55” value ([2]; 4 mg/kg) of the same substance?
Answer: 0 ± 0 mm3

Question: What about the “Average Tumor Size (mm3) ± SEM on Day 60” value ([2]; 4 mg/kg) of the same substance?
Answer: 0 ± 0 mm3

Question: What about the “tumor burden (in words)” value [3] of the same substance?
Answer: reduced tumor burdens to background levels in the majority of animals
